{"source": "patent US5336485A", "about": "“Method for protecting animals against tacrine induced cytotoxic injury using sterol compounds” (priority 1993, dated 1994)", "key": {"rat hepatocytes": {"test_system": "rat hepatocytes", "experiment": "EMS-induced lipid peroxidation in rat hepatocyte suspensions", "assay_type": "cell-based", "conditions": "50 mM EMS"}, "canine hepatocytes": {"test_system": "canine hepatocytes", "experiment": "Intracellular K+ of canine hepatocytes exposed to EMS", "assay_type": "cell-based", "conditions": "25 μM, 50 mM EMS", "text": "Medzhradsky, Biochem. Med. 13:164 (1975), has noted that the cell's ability to maintain its intracellular concentration of potassium (K^+) is an excellent indicator of the metabolic integrity of the cell. A concentration gradient exists for K^+ with greater concentrations found intracellularly. To maintain this gradient, the cell is dependent on the action of the Na^+ -K^+ ATPase pump and an adequate supply of ATP. As cellular ATP levels decline, the ATPase pump is unable to maintain the gradient resulting in the loss of intracellular K^+ by equilibration with the extracellular space. Because the maintenance of cellular metabolic processes is essential to the continual repair and survival of cells, organ systems, and organisms, the effect of alpha-TS on the metabolic integrity of rat liver cells during a toxic insult was investigated by measuring intracellular K^+ levels. FIGS. 2a-2b show the response of rat and canine hepatocytes, respectively, exposed to 50 mM EMS. […] The response curves shown in FIGS. 2a and 2b indicate that alpha-TS under physiological conditions can maintain the metabolic integrity of animal hepatocytes during a toxic insult.\nOnly viable cells were monitored in the laboratory procedures."}, "[1]": {"experiment": "Tissue distribution of alpha-tocopherol and alpha-tocopherol ester in rats", "assay_type": "in vivo, rat", "conditions": "48 h after single dose"}}}
{"molecule": "Cc1c(C)c2c(c(C)c1OC(=O)CCC(=O)O)CC[C@@](C)(CCC[C@H](C)CCC[C@H](C)CCCC(C)C)O2", "note": "[alpha-TS, d-alpha-tocopheryl succinate]", "values": [{"measurement": "Lipid Peroxidation", "setting": "rat hepatocytes; 5 Hrs, concentrations as cell death (Table 15)", "result": 0.9, "unit": "nmolMDA/10^6 cells"}, {"measurement": "inhibition at 25 µM", "setting": "rat hepatocytes; Rattus norvegicus, Hepatocyte, 25 μM", "result": 100, "unit": "%"}, {"measurement": "intracellular K+ during EMS insult", "setting": "canine hepatocytes", "result": "no loss of intracellular K+"}, {"measurement": "alpha-TS detection in tissue", "setting": "[1]", "result": "could not be detected"}]}
